From patent US6020305A, “Treatment of stress-induced skin disease by corticotropin releasing hormone antagonists and skin mast cell degranulation inhibitors” (Kos Pharmaceuticals, Inc., priority 1996, dated 2000)
Ends that are not written are not given here.

What was measured:
skin mast cells [1] = assay: Effect of drug pretreatment on dye extravasation induced by CRH; assay type: in vivo, rat; settings: for Dye Extravasation (color intensity) by CRH after drug pretreatment: drug 10^-4 M pretreatment, then CRH 10^-4 M, n = 3
Protocol: (§1) 1. For extravasation experiments, male Sprague/Dawley rats, each weighing approximately 350 g (Taconic Farms, Germantown, N.Y.), were anesthetized with a single intraperitoneal injection of 0.5 ml ketamine and 0.5 ml xylazine (20 mg/ml each) and then injected intravenously with 0.1 ml of 1% Evan's blue 60 min prior to treatment.
(§2) 3. The pretreatment solution, when appropriate, was drawn first in the syringe followed by CRH from which it was separated by an air bubble. The pretreatment solution was injected first and was allowed to remain in the skin for 1 min; the needle was then changed, the air bubble ejected and CRH was injected and allowed to stay in the skin for 5 min. The animal was then killed by asphyxiation over CO2 vapor and decapitated; the skin was removed, turned over and photographed.

skin mast cells [2] = assay: Dye (Evan's blue) extravasation after intradermal injection; assay type: in vivo, rat
Protocol: as §1, §2

skin mast cells [3] = assay: Skin mast cell degranulation at injection site, light microscopy (toluidine blue); assay type: in vivo, rat; settings: for Mast Cell Degranulation, Deg. MC: count of degranulated mast cells
Excerpt: 4. In other rats, the skin was rapidly removed at the end of the injection period and was fixed in 4% paraformaldehyde for light microscopy (Theoharides et al., Int. Arch. Allergy Immunol. 102:352 (1993)), which is incorporated herein by reference in its entirety. The tissue was then frozen and thin sections (7 μ) were cut using a cryostat (Jung CM 3000, Leica, Luc. Deerfield, Ill.). The sections were stained with acidified (pH<2.5) toluidine blue (Sigma, St. Louis) and all mast cells were counted, by two different researchers blinded to the experimental conditions, at 400× magnification using a Diaphot inverted Nikon microscope (Don Santo, Mass.).

skin mast cells [4] = assay: Ultrastructural analysis of CRH-treated skin mast cells; assay type: in vivo, rat; settings: CRH-injected sites
Excerpt: The effect of CRH on both vasodilation and mast cell activation was dose-dependent from 10^-4 M-10^-8 M (Table 1).

skin mast cells [5] = assay: Skin mast cell activation by CRH in rats treated neonatally with capsaicin; assay type: in vivo, rat; settings: CRH 10^-4 M, neonatal capsaicin
pleural mast cells = assay: Histamine release from purified pleural mast cells; assay type: cell-based, rat
peritoneal mast cells = assay: Histamine release from purified peritoneal mast cells; assay type: cell-based, rat

`CN(C)CCC=C1c2ccccc2COc2ccccc21` [Doxepin, doxepin] was tested, and the “Dye Extravasation (color intensity) by CRH after drug pretreatment” value (“Dye Extravasation (color intensity)” below) (skin mast cells [1]) was “blocked the CRH effect entirely”.
For `OCCOCCN1CCN(C(c2ccccc2)c2ccc(Cl)cc2)CC1` (stereo not drawn) [Hydroxyzine, hydroxyzine], the “Dye Extravasation (color intensity)” value (skin mast cells [1]) was “blocked the CRH effect entirely”.
With `C[C@H](N)C(=O)NCC(=O)N[C@H]1CSSC[C@@H](C(=O)O)NC(=O)[C@H](CO)NC(=O)[C@H]([C@@H](C)O)NC(=O)[C@H](Cc2ccccc2)NC(=O)[C@H]([C@@H](C)O)NC(=O)[C@H](CCCCN)NC(=O)[C@H](Cc2c[nH]c3ccccc23)NC(=O)[C@H](Cc2ccccc2)NC(=O)[C@H](Cc2ccccc2)NC(=O)[C@H](CC(N)=O)NC(=O)[C@H](CCCCN)NC1=O` [Somatostatin, somatostatin] the “fluid extravasation, substance alone” value (skin mast cells [2]; 10^-12 M) was “still apparent”, the “fluid extravasation, substance alone” value (skin mast cells [2]; alone, as strong as that seen with CRH) was “significant fluid extravasation” and the “Dye Extravasation (color intensity)” value (skin mast cells [1]) was “more dye extravasation than CRH alone”.
In the case of `CC(C)(C)c1ccc(C(O)CCCN2CCC(C(O)(c3ccccc3)c3ccccc3)CC2)cc1` (stereo not drawn) [Terfenadine, terfenadine], the “Dye Extravasation (color intensity)” value (skin mast cells [1]) is reported as “reduced the CRH effect slightly”.
In the case of “Corticotropin-Releasing Hormone (SEEPPISLDLTFHLLREVLEMARAEQLAQQAHSNRKLMEII; ends and bridges not checked; UniProt P06850 154-194, looked up) [CRH, major regulator of the hypothalamic-pituitary-adrenal axis; peptide from Sigma]”, the “dose dependence of effect on vasodilation and mast cell activation” value (skin mast cells [2]; 10^-4 M-10^-8 M) is reported as “dose-dependent”, the “skin vascular permeability, as evidenced by dye extravasation” value (skin mast cells [2]; compared with equimolar C48/80 or SP) is reported as “marked increases” and the “Mast Cell Degranulation, Deg. MC” value (skin mast cells [3]; 10^-4 M) is reported as 426. For the same molecule, the “Mast Cell Degranulation, % total deg.” value (skin mast cells [3]; 10^-5 M) was 37 % total, the “Mast Cell Degranulation, Deg. MC” value (skin mast cells [3]; 10^-5 M) was 327 and the “Mast Cell Degranulation, % total deg.” value (skin mast cells [3]; 10^-6 M) was 42 % total. The “Mast Cell Degranulation, Deg. MC” value (skin mast cells [3]; 10^-6 M) was 331, the “Mast Cell Degranulation, % total deg.” value (skin mast cells [3]; 10^-7 M) was 37 % total and the “Mast Cell Degranulation, Deg. MC” value (skin mast cells [3]; 10^-7 M) was 329. For the same molecule, the “Mast Cell Degranulation, % total deg.” value (skin mast cells [3]; 10^-8 M) was 32 % total, the “Mast Cell Degranulation, Deg. MC” value (skin mast cells [3]; 10^-8 M) was 254 and the “Mast Cell Degranulation, % total deg.” value (skin mast cells [3]; 10^-9 M) was 28 % total. The “Mast Cell Degranulation, Deg. MC” value (skin mast cells [3]; 10^-9 M) was 202, the “Mast Cell Degranulation, % total deg.” value (skin mast cells [3]; 10^-10 M) was 26 % total and the “Mast Cell Degranulation, Deg. MC” value (skin mast cells [3]; 10^-10 M) was 239. For the same molecule, the “ultrastructural signs of mast cell activation (loss of electron dense granule content)” value (skin mast cells [4]) was “obvious sign of activation”, the “mast cell activation in capsaicin-treated animals” value (skin mast cells [5]) was “unaffected” and the “Histamine Release (% total), Pleural + Calcium” value (pleural mast cells; 10^-4 M) was 22.06 % total. For the same molecule, the “Histamine Release (% total), Pleural - Calcium” value (pleural mast cells; 10^-4 M) was 34.244 % total, the “Histamine Release (% total), Pleural + Calcium” value (pleural mast cells; 10^-5 M) was 2.102 % total and the “Histamine Release (% total), Pleural - Calcium” value (pleural mast cells; 10^-5 M) was 8.579 % total. For the same molecule, the “Histamine Release (% total), Pleural + Calcium” value (pleural mast cells; 10^-6 M) was 1.411 % total, the “Histamine Release (% total), Pleural - Calcium” value (pleural mast cells; 10^-6 M) was 4.253 % total and the “histamine release from pleural mast cells” value (pleural mast cells; in words, required absence of extracellular calcium ions) was “induced histamine release”. The “Histamine Release (% total), Peritoneal Calcium” value (peritoneal mast cells; 10^-4 M) was 25.5 % total, the “Histamine Release (% total), Peritoneal + Calcium” value (peritoneal mast cells; 10^-4 M) was 6.3 % total and the “Histamine Release (% total), Peritoneal Calcium” value (peritoneal mast cells; 10^-5 M) was 6.9 % total. For the same molecule, the “Histamine Release (% total), Peritoneal + Calcium” value (peritoneal mast cells; 10^-5 M) was 1.9 % total, the “Histamine Release (% total), Peritoneal Calcium” value (peritoneal mast cells; 10^-6 M) was 4.9 % total and the “Histamine Release (% total), Peritoneal + Calcium” value (peritoneal mast cells; 10^-6 M) was 2.0 % total. For the same molecule, the “effect on peritoneal mast cells (histamine release)” value (peritoneal mast cells; in words) was “largely ineffective”.
With “[D-Phe^12 Nle^21,38, Ala^32 ]rCRH(12-41) [CRH-α]” the “inhibition of dye extravasation by CRH” value (skin mast cells [1]; antagonist 10^-4 M, CRH 10^-6 M) was “could not inhibit”, the “block of the effect of CRH” value (skin mast cells [1]; plasma extravasation and mast cell degranulation) was “did not block” and the “Mast Cell Degranulation, % total deg.” value (skin mast cells [3]; 10^-4 M) was 25 % total. The “Mast Cell Degranulation, Deg. MC” value (skin mast cells [3]; 10^-4 M) was 28.
In the case of substance P [SP], the “Histamine Release (% total), Pleural + Calcium” value (pleural mast cells; 10^-4 M) is reported as 49.346 % total, the “Histamine Release (% total), Pleural - Calcium” value (pleural mast cells; 10^-4 M) is reported as 54.591 % total and the “Histamine Release (% total), Pleural + Calcium” value (pleural mast cells; 10^-5 M) is reported as 22.919 % total. The “Histamine Release (% total), Pleural - Calcium” value (pleural mast cells; 10^-5 M) was 28.871 % total, the “Histamine Release (% total), Pleural + Calcium” value (pleural mast cells; 10^-6 M) was 2.088 % total and the “Histamine Release (% total), Pleural - Calcium” value (pleural mast cells; 10^-6 M) was 8.538 % total. The “Histamine Release (% total), Peritoneal Calcium” value (peritoneal mast cells; 10^-5 M) was 39.5 % total.
